Counter-ions that a name gives are not always drawn.

This test relates to ATGL-KO iPSCs. Kind of test: High throughput iPSC chemical screening, Oil Red O (ORO) lipid accumulation. For Z-score: test concentration or dose not given here. It is filed as cell-based, mouse. The note with it: for Z-score: normalized ORO level vs DMSO-treated cells, compound present during 7 days differentiation, 96-well, negative = decrease in lipid accumulation; for Rank in normalized ORO score from screen: glycolytic switch compounds.

In turn, `Cc1cccc(C)c1NC(=O)CN1CCN(CCCC(c2ccc(F)cc2)c2ccc(F)cc2)CC1` [Lidoflazine] registered a Z-score of 1.42.

`CCC[C@@H]1C[C@@H](C(=O)N[C@@H]([C@H]2O[C@H](SC)[C@H](O)[C@@H](O)[C@H]2O)[C@@H](C)O)N(C)C1` [Lincomycin hydrochloride]: the Z-score stood at 0.696.

As to `N[C@@H](Cc1cc(I)c(Oc2ccc(O)c(I)c2)c(I)c1)C(=O)O` [Liothyronine], the Z-score is given as 0.1954.

For the compound `NCCCC[C@H](N[C@@H](CCc1ccccc1)C(=O)O)C(=O)N1CCC[C@H]1C(=O)O` [Lisinopril], the Z-score was 0.5403.

`CCN(CC)C(=O)N[C@H]1C=C2c3cccc4[nH]cc(c34)C[C@H]2N(C)C1` [Lisuride (S)(−)] gave a Z-score of −0.7927.

On to `C[C@H](CCC(=O)O)[C@H]1CC[C@H]2[C@@H]3CC[C@@H]4C[C@H](O)CC[C@]4(C)[C@H]3CC[C@]12C` [Lithocholic acid], for which the Z-score was 0.8022.

For the compound `CN1[C@@H](C[C@@H](O)c2ccccc2)CCC[C@H]1C[C@H](O)c1ccccc1.Cl` [Lobelanidine hydrochloride], the Z-score is given as −0.6306.

Regarding `CN1[C@@H](CC(=O)c2ccccc2)CCC[C@H]1C[C@H](O)c1ccccc1.Cl` [Lobeline alpha (−) hydrochoride], the Z-score is −0.5438.

`CCn1cc(C(=O)O)c(=O)c2cc(F)c(N3CCNC(C)C3)c(F)c21` (centres unmarked) [Lomefloxacin hydrochloride]: the Z-score worked out at 0.00477.

In turn, `CN(C)C(=O)C(CCN1CCC(O)(c2ccc(Cl)cc2)CC1)(c1ccccc1)c1ccccc1` [Loperamide hydrochloride] registered a Z-score of −0.1814.

Turning to `N[C@@H](C(=O)N[C@@H]1C(=O)N2C(C(=O)O)=C(Cl)CC[C@H]12)c1ccccc1` [Loracarbef], the Z-score worked out at 0.6457.

`CCCCCN(CCCCC)C(=O)C(CCC(=O)O)NC(=O)c1ccc(Cl)c(Cl)c1` (centres unmarked) [Lorglumide sodium salt] showed a Z-score of −1.7664.

The compound `CC[C@H](C)C(=O)O[C@H]1C[C@@H](C)C=C2C=C[C@H](C)[C@H](CC[C@@H]3C[C@@H](O)CC(=O)O3)[C@H]21` [Lovastatin] returned a Z-score of 6.935.

For `CN1CCN(C2=Nc3ccccc3Oc3ccc(Cl)cc32)CC1` [Loxapine succinate], the Z-score is −0.6976.

For `COC1=C[C@@H]2C3=C([C@@H]2C1=O)[C@@H](NC(C)=O)CCc1cc(OC)c(OC)c(OC)c13` [Lumicolchicine gamma], the Z-score was found to be 0.6596.

Take `O=c1cc(-c2ccc(O)c(O)c2)oc2cc(O)cc(O)c12` [Luteolin]: the Z-score is listed as −1.0098.

The compound `CN(C)[C@@H]1C(O)=C(C(=O)NCNCCCC[C@H](N)C(=O)O)C(=O)[C@@]2(O)C(O)=C3C(=O)c4c(O)cccc4[C@@](C)(O)[C@H]3C[C@@H]12` [Lymecycline] came in with a Z-score of −1.3365.

As to `C#C[C@]1(O)CC[C@H]2[C@@H]3CCC4=CCCC[C@@H]4[C@H]3CC[C@@]21C` [Lynestrenol], the Z-score is −1.3181.

For `CN1C[C@H](CO)C=C2c3cccc4[nH]cc(c34)C[C@H]21` [Lysergol], the Z-score is reported as −0.3809.

In the case of `NCc1ccc(S(N)(=O)=O)cc1` [Mafenide hydrochloride], the Z-score is recorded as 0.8468.

`CNCCCC12CCC(c3ccccc31)c1ccccc12` [Maprotiline hydrochloride] had a Z-score of 0.03741.

The compound `COC(=O)Nc1nc2ccc(C(=O)c3ccccc3)cc2[nH]1` [Mebendazole] displayed a Z-score of 49.935.

`CCN(CCCCOC(=O)c1ccc(OC)c(OC)c1)C(C)Cc1ccc(OC)cc1` (centres unmarked) [Mebeverine hydrochloride]: the Z-score was 0.1096.

`CN1CCc2c(c3ccccc3n2Cc2ccccc2)C1.O=S(=O)(O)c1cccc2c(S(=O)(=O)O)cccc12` [Mebhydroline 1,5-naphtalenedisulfonate] returned a Z-score of 0.4999.

`CNC1(C)C2CCC(C2)C1(C)C` (centres unmarked) [Mecamylamine hydrochloride] showed a Z-score of 2.563.

As for `C=C1c2c(Cl)ccc(O)c2C(=O)C2=C(O)[C@]3(O)C(=O)C(C(N)=O)=C(O)[C@@H](N(C)C)[C@@H]3[C@@H](O)[C@H]12.O=C(O)c1cc(S(=O)(=O)O)ccc1O` [Meclocycline sulfosalicylate], the Z-score came to 8.326.

`CN(C)CCOC(=O)COc1ccc(Cl)cc1` [Meclofenoxate hydrochloride]: the Z-score was 0.4945.

Take `Cc1cccc(CN2CCN(C(c3ccccc3)c3ccc(Cl)cc3)CC2)c1` (centres unmarked) [Meclozine dihydrochloride]: the Z-score is 1.227.

In turn, `CC(=O)[C@H]1CC[C@H]2[C@@H]3C[C@H](C)C4=CC(=O)CC[C@]4(C)[C@H]3[C@@H](O)C[C@]12C` [Medrysone] displayed a Z-score of −0.1611.

In turn, `Cc1cccc(Nc2ccccc2C(=O)O)c1C` [Mefenamic acid] had a Z-score of −0.2407.

Compound `CCN(CC)CCNC(=O)COc1ccc(OC)cc1` [Mefexamide hydrochloride] registered a Z-score of −0.2169.

Regarding `CC(=O)O[C@]1(C(C)=O)CC[C@H]2[C@@H]3C=C(C)C4=CC(=O)CC[C@]4(C)[C@H]3CC[C@@]21C` [Megestrol acetate], the Z-score was determined as 1.362.

The compound `CNC[C@H](O)[C@@H](O)[C@H](O)[C@H](O)CO` [Meglumine] displayed a Z-score of −1.1536.

Regarding `COc1ccc2[nH]cc(CCNC(C)=O)c2c1` [Melatonin], the Z-score is listed as 0.08162.

For the compound `CC12CC3CC(C)(C1)CC(N)(C3)C2` [Memantine Hydrochloride], the Z-score is −1.2487.

As to `CC1=CC(=O)c2ccccc2C1=O` [Menadione], the “Rank in normalized ORO score from screen” value is given as 517 and the Z-score is given as −0.29.

`C[N+]1(C)CCCC(OC(=O)C(O)(c2ccccc2)c2ccccc2)C1` (centres unmarked) [Mepenzolate bromide] registered a Z-score of −0.115.

Turning to `Cc1ccccc1OCC(O)CO` (centres unmarked) [Mephenesin], the Z-score is reported as −0.9401.

`CCC1(c2ccccc2)NC(=O)N(C)C1=O` (centres unmarked) [Mephenytoin] registered a Z-score of 0.8864.

In the case of `CCCNC(C)(C)COC(=O)c1ccccc1` [Meprylcaine hydrochloride], the Z-score was −0.9597.

`CCC1(c2cccc(O)c2)CCCCN(C)C1` (centres unmarked) [Meptazinol hydrochloride] showed a Z-score of −1.0631.

The compound `C[C@@H](O)[C@H]1C(=O)N2C(C(=O)O)=C(S[C@@H]3CN[C@H](C(=O)N(C)C)C3)[C@H](C)[C@H]12` [Meropenem] had a Z-score of 0.5806.

Consider `Nc1ccc(O)c(C(=O)O)c1` [Mesalamine], for which the Z-score was −0.1803.

Compound `CN1CCCCC1CCN1c2ccccc2Sc2ccc([S+](C)[O-])cc21` (centres unmarked) [Mesoridazine besylate] returned a Z-score of −0.5525.

In turn, `C=N[C@@H](C(=O)N[C@@H]1C(=O)N2[C@@H]1SC(C)(C)[C@@H]2C(=O)O)c1ccccc1` [Metampicillin sodium salt] had a Z-score of 0.638.

Take `CNCC(O)c1ccc(O)c(OC)c1.Cl` (stereo not drawn) [Metanephrine hydrochloride DL]: the Z-score is −1.0419.

Compound `C[C@H](N)[C@H](O)c1cccc(O)c1` [Metaraminol bitartrate] had a Z-score of −0.9024.

Turning to `CN1C[C@H](CNC(=O)OCc2ccccc2)C[C@@H]2c3cccc4c3c(cn4C)C[C@H]21` [Metergoline], the Z-score is 0.5474.

Compound `CN(C)C(=N)N=C(N)N` [Metformin hydrochloride] gave a Z-score of 0.7664.

On to `CC(=O)OC(C)C[N+](C)(C)C` (centres unmarked) [Methacholine chloride], for which the Z-score was −0.8044.

Consider `C=C1c2cccc(O)c2C(=O)C2=C(O)[C@]3(O)C(=O)C(C(N)=O)=C(O)[C@@H](N(C)C)[C@@H]3[C@@H](O)[C@H]12` [Methacycline hydrochloride], for which the Z-score is 2.309.

Take `CC[N+](C)(CC)CCOC(=O)C1c2ccccc2Oc2ccccc21` [Methantheline bromide]: the Z-score is reported as −0.7033.

`CN(C)CCN(Cc1cccs1)c1ccccn1` [Methapyrilene hydrochloride] registered a Z-score of −0.1861.

Compound `CC(=O)/N=c1/sc(S(N)(=O)=O)nn1C` [Methazolamide] had a Z-score of 0.06841.

In turn, `COC(=O)Nc1nc2ccc(SC(C)C)cc2[nH]1` [Methiazole] displayed a Z-score of 19.8245.

Take `Cn1cc[nH]c1=S` [Methimazole]: the Z-score is 0.6934.

`CS(=N)(=O)CC[C@H](N)C(=O)O` (some centres unmarked) [Methionine sulfoximine (L)] showed a Z-score of −0.2829.

`CSc1ccc2c(c1)C(N1CCN(C)CC1)Cc1ccccc1S2.O=C(O)/C=C\C(=O)O` (centres unmarked) [Methiothepin maleate]: the “Rank in normalized ORO score from screen” value is 658 and the Z-score is on record as 0.08061.

Take `COc1ccccc1OCC(O)COC(N)=O` (centres unmarked) [Methocarbamol]: the Z-score was −1.1429.

Regarding `CN(Cc1cnc2nc(N)nc(N)c2n1)c1ccc(C(=O)N[C@@H](CCC(=O)O)C(=O)O)cc1` [Methotrexate], the Z-score stood at 7.697.

`COc1ccc2c(c1)N(C[C@H](C)CN(C)C)c1ccccc1S2.O=C(O)/C=C\C(=O)O` [Methotrimeprazine maleat salt]: the Z-score amounted to 1.548.

Regarding `COc1ccc(OC)c(C(O)C(C)N)c1` (centres unmarked) [Methoxamine hydrochloride], the Z-score was found to be 0.4239.

In turn, `COc1ccc2[nH]c3c(c2c1)CCN=C3C` [Methoxy-6-harmalan] had a Z-score of 1.201.

Take `COc1c2occc2cc2ccc(=O)oc12` [Methoxy-8-psoralen]: the Z-score is recorded as 1.942.

`Cc1cc(C(C)(C)CC(C)(C)C)ccc1OCCOCC[N+](C)(C)Cc1ccccc1.[Cl-]` [Methyl benzethonium chloride] showed a Z-score of 12.6356.

`C[N+]1(C)[C@@H]2CC[C@H]1C[C@@H](OC(=O)C(CO)c1ccccc1)C2` (some centres unmarked) [Methylatropine nitrate] gave a Z-score of −1.1494.

The compound `C[C@](N)(Cc1ccc(O)c(O)c1)C(=O)O` [Methyldopa (L,−)] had a Z-score of 0.02395.

With `CCOC(=O)[C@@](C)(N)Cc1ccc(O)c(O)c1` [Methyldopate hydrochloride], the Z-score was 0.5054.

`CC[C@@H](CO)NC(=O)[C@@H]1C=C2c3cccc4[nH]cc(c34)C[C@H]2N(C)C1` [Methylergometrine maleate] yielded a Z-score of 0.02492.

Source of the values: patent publication US9393221B2, “Methods and compounds for reducing intracellular lipid storage” (THE GENERAL HOSPITAL CORPORATION, priority 2011, dated 2016).
